Like-named read-outs stand apart in the source and are kept apart here.
What was measured:
CCL17 = target: T1, CCL17 (Homo sapiens, UniProt Q92583); test: Inhibition of intracellular calcium response (INDO-1) induced by CCL17 in HEK 293 cells expressing CCR4; format: cell-based; conditions: compound concentration not given
T1 construct: host or cells: HEK 293 cells expressing EGFP-CCR4 (and Gqi5)
T1 sequence (Q92583 24-94): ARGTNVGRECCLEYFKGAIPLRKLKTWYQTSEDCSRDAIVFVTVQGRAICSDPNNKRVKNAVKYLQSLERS
Procedure: In order to enable an easy recording of the responses associated to the CCR4 receptor, the cDNA which allows its expression is cloned in the plasmid pIRES (ClonTech) in fusion with the GFP protein, according to Vollmer et al. (1999), which enables to easily measure the expression of the chimeric EGFP-CCR4 receptor. HEK 293 cells (ATCC) are cultured in minimal essential medium MEM (Invitrogen) in the presence of 10% of fetal calf serum (Gibco-BRL), 100 U/mL of penicillin (Invitrogen), 100 αg/mL of streptomycin (Invitrogen) and 2 mM of L-glutamine (Invitrogen) at 37° C. in water-saturated atmosphere and containing 5% of 002. The cells are transfected according to the calcium phosphate precipitate method of Chen ant Okayama, 1986, and the cells having incorporated the expression plasmid are selected with 600 αg/mL of geneticin G-418 (PAA) for 5 weeks. The clones are selected after having been characterized by fluorescence microscopy and cytometric analysis by FACS (fluorescence assisted cell sorting). In order to enable an easy recording of the cell responses associated to the CCR4 receptor, we modify its natural coupling to the inhibition of AMPc production to a coupling to the phospholipase C which enables calcium measurements. We produce for this purpose the chimeric protein Gqi5 by directed mutagenesis of the 5 las amino acids of Gq replaced by their homologues of Gi. The cells expressing the CCR4 receptor are transfected with the plasmid pCNA3.1 in which the cDNA encoding Gqi5 has been incorporated. The recordings of calcium responses are performed the day after de transfection. The cells are loaded with a fluorescent calcium indicator, INDO-1, according to the protocol provided by the provider (Molecular probes), distributed in microplate wells and placed in a fluorescence reader-pipettor (FlexStation, Molecular devices). Intracellular calcium elevation is measured by fluorescence intensity change at 401 and 475 nm (excitation 355 nm). Measure points are recorded every 5 s for 150 s for each well. The molecules are tested in the presence of 5 nM of chemokine CCL22 (commercial). […] The response develops in a few seconds and fades with time for reaching the return in approximately 2 minutes for a chemokine CCL22 concentration of 5 to 10 nM in HEK 293 cells expressing CCR4. If the molecules to be tested are preincubated with chemokine [CK+N] and if the mixture is added to the cells, we observe a strong decrease in the amplitude of the response if the molecule to be tested is a neutralizing ligand of the chemokine. Conversely, when the neutralizing ligand is preincubated with the cells expressing the receptor [CKR+N] we observe a much smaller decrease of the amplitude of the response. Analysis of the molecules selectivity is carried out by measuring the inhibition of the response evoked by other chemokines on their respective receptors thus, in FIG. 3, the molecules have been tested on the pairs CCL2/CCR2, CCL3/CCR5, CCL17/CCR4, CCL22/CCR4, […], CXCL10/CXCR2, CXCL11/CXCR3, CXCL12/CXCR4.

CCL22 [1] = target: T2, CCL22 (Homo sapiens, UniProt O00626); test: Inhibition of intracellular calcium response (INDO-1) induced by CCL22 in HEK 293 cells expressing EGFP-CCR4 and Gqi5; format: cell-based; set-up: purchased; host or cells: HEK 293 cells stably expressing EGFP-CCR4, transiently transfected with Gqi5; conditions: HEK 293 cells expressing CCR4; 5 nM CCL22; compound concentration not given
T2 sequence (O00626 25-93): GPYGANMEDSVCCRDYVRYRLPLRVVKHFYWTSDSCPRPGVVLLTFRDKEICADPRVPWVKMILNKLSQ
Procedure: In order to enable an easy recording of the responses associated to the CCR4 receptor, the cDNA which allows its expression is cloned in the plasmid pIRES (ClonTech) in fusion with the GFP protein, according to Vollmer et al. (1999), which enables to easily measure the expression of the chimeric EGFP-CCR4 receptor. HEK 293 cells (ATCC) are cultured in minimal essential medium MEM (Invitrogen) in the presence of 10% of fetal calf serum (Gibco-BRL), 100 U/mL of penicillin (Invitrogen), 100 αg/mL of streptomycin (Invitrogen) and 2 mM of L-glutamine (Invitrogen) at 37° C. in water-saturated atmosphere and containing 5% of 002. The cells are transfected according to the calcium phosphate precipitate method of Chen ant Okayama, 1986, and the cells having incorporated the expression plasmid are selected with 600 αg/mL of geneticin G-418 (PAA) for 5 weeks. The clones are selected after having been characterized by fluorescence microscopy and cytometric analysis by FACS (fluorescence assisted cell sorting). In order to enable an easy recording of the cell responses associated to the CCR4 receptor, we modify its natural coupling to the inhibition of AMPc production to a coupling to the phospholipase C which enables calcium measurements. We produce for this purpose the chimeric protein Gqi5 by directed mutagenesis of the 5 las amino acids of Gq replaced by their homologues of Gi. The cells expressing the CCR4 receptor are transfected with the plasmid pCNA3.1 in which the cDNA encoding Gqi5 has been incorporated. The recordings of calcium responses are performed the day after de transfection. The cells are loaded with a fluorescent calcium indicator, INDO-1, according to the protocol provided by the provider (Molecular probes), distributed in microplate wells and placed in a fluorescence reader-pipettor (FlexStation, Molecular devices). Intracellular calcium elevation is measured by fluorescence intensity change at 401 and 475 nm (excitation 355 nm). Measure points are recorded every 5 s for 150 s for each well. The molecules are tested in the presence of 5 nM of chemokine CCL22 (commercial). […] The response develops in a few seconds and fades with time for reaching the return in approximately 2 minutes for a chemokine CCL22 concentration of 5 to 10 nM in HEK 293 cells expressing CCR4. If the molecules to be tested are preincubated with chemokine [CK+N] and if the mixture is added to the cells, we observe a strong decrease in the amplitude of the response if the molecule to be tested is a neutralizing ligand of the chemokine. Conversely, when the neutralizing ligand is preincubated with the cells expressing the receptor [CKR+N] we observe a much smaller decrease of the amplitude of the response. The apparent affinity of the GPN136 molecules is determined by the establishment of a dose-effect relationship of the inhibition of the calcium response as presented in FIG. 2 and the results obtained are reported in table 1.

CCL22 [2] = target: T2, CCL22; test: Interaction affinity by fluorescence extinction of tryptophan residues of CCL22; format: binding; conditions: for Fluorescence extinction of CCL22 (tryptophan intrinsic fluorescence): excitation 285 nm, emission 300-400 nm, FIG. 4; for Kd: CCL22 1.5 μm, HEPES buffer without albumin, 20° C., biphasic titration curve
Procedure: Briefly: the fluorescence measurements are carried out on a spectrofluorimeter Fluorolog 3 (JobinYvon/Spex) in a quartz cuvette. CCL22 (1.5 μm (HEPES buffer without albumin) in 1 mL final volume) is excited at 285 nm and its emission spectrum is recorded between 300 and 400 nm after each addition of an aliquot of molecule to be tested (1 μm). The measurements are carried out at 20° C. and the solutions are stirred using a magnetic stir bar. The recorded emission spectra are corrected by subtraction of the emission spectrum of the compound to be tested alone.

Hacat cells [3] = test: Human keratinocyte migration assay (in vitro wound-healing test in a cell monolayer, scratch, IncuCyte); format: cell-based; conditions: 100 ng/ml CCL22, 72 h, mitomycin 1 μg/ml, FIG. 5
Description: The activity of the GPN 136 molecule has been evaluated in a human keratinocytes migration assay performed according to an in vitro wound-healing test in a cell monolayer. It is actually known that, in these chronic pathologies, an important cell migration may promote de formation of pruritus, one of the signs of dermatosis. The immortalized human keratinocytes obtained from the DKFZ (Heidelberg, Germany) are cultivated in Dulbecco medium modified by Eagle (DMEM, Invitrogen) supplemented with 10% of fetal calf serum (Gibco-BRL) and 100 U/ml of penicillin (Invitrogen), 100 μg/ml of streptomycin (Invitrogen) and 2 mM of L glutamine (Invitrogen) at 37° C. and 5% of CO2. The wells of a culture plate of 24 well are inoculated with 200,000 cells and the culture is maintained until formation of a confluent cell monolayer. The cell monolayer is then damaged by performing a linear gap (scratch) using a sterile pipette head of 0.1-10 μL. […] The effect of the molecules alone is also recorded in different wells. […]
The culture plates are arranged in the IncuCyte apparatus which records the growth on the cell monolayer by transmitted imaging in cell culture conditions (37° C., 5% CO2, water-saturated atmosphere) for 72 h. […] Healing is defined (quantified) as the ratio of the width of the scar at time t and time 0. […]

Hacat cells [4] = test: Metabolic activity test (WST-1 assay), in vitro cytotoxic activity; format: cell-based, human; conditions: 0.3 μM, 10 μM or 30 μM, 72 hours, FIG. 7
Description: The metabolic activity test is a colorimetric test (WST-1 assay—Ozyme) based on the measurement of the activity of the mitochondrial enzyme succinate-tetrazolium reductase cleaving the tetrazolium salt WST-1 ((4-[3-(4-Iodophenyl)-2-(4-nitrophenyl)-2H-5-tetrazolio]-1,3 benzene disulfonate)) in a water-soluble derivative called formazan, a dye which absorbs light in the range of 420-480 nm. Hacat cells are distributed at the rate of 200,000 cells per well in a culture plate of 24 wells, in a final volume of 500 μL. They are cultured for 24 hours before adding mitomycin C (1 μg/ml) and the compound to be tested. The culture plate is incubated for 72 hours at 37° C., 5% CO2, in water-saturated atmosphere. […] The plates are stirred to homogenize the color in the wells and the absorbance is measured at 450 nm in the multiwell-plate reader. […] As enzymatic activity requires cellular integrity, the absorbance will be all the stronger as the metabolic state of the cells is good.
In vitro cytotoxic activity: the Hacat cell cultures are treated with different concentrations of molecule: 0.3 μM (dark gray bars), 10 μM (light gray bars) or 30 μM (white bars) of GPN 136 and GPN 025 molecules. The activity of the mitochondrial enzyme formazan-reductase is recorded using the chromogenic substrate WST-1 which turns into a colored product, called formazan, detected at 450 nm.

Row | Inhibition of calcium responses induced by CCL17 (%) (CCL17) | Inhibition of calcium responses induced by CCL22 (%) (CCL22 [1]) | SMILES | other results
1 | 0 | 37 ± 6 | O=C(OCC(O)CO)c1ccccc1O (stereo in doubt) [GPS008505, (R)-2,3-dihydroxypropyl 2-hydroxybenzoate] | –
2 | 0 | 40 ± 5 | O=C(OCC(O)CO)c1ccccc1O (stereo in doubt) [GPS008506, (S)-2,3-dihydroxypropyl 2-hydroxybenzoate] | –
3 | 0 | 0 | CC(=O)Oc1ccccc1C(=O)O [Acetylsalicylic acid, reference compound] | –
4 | – | – | COc1cc2nc(N3CCC(N4CCCCC4)CC3)nc(NC3CCCCCC3)c2cc1OC [C-021, reference compound] | Fluorescence extinction of CCL22 (tryptophan intrinsic fluorescence) (CCL22 [2]): no signal
5 | 0 | 35 ± 8 | O=C(OCC(O)CO)c1ccccc1O (stereo not shown) [GPN136, 2,3-dihydroxypropyl 2-hydroxybenzoate] | Kd (CCL22 [2]; read-out: KD, second site): 53 µM; Kd (CCL22 [2]; read-out: KD, site of high affinity): < 0.05 µM; Fluorescence extinction of CCL22 (tryptophan intrinsic fluorescence) (CCL22 [2]): fluorescence extinction of CCL22 is observed; Effect on CCL22-accelerated cell migration (Hacat cells [3]): abolished; Effect on mitochondrial enzymatic activity / cellular metabolism (WST-1, 450 nm) (Hacat cells [4]): does not affect enzymatic activity
6 | 0 | 0 | O=C(O)c1ccccc1O [GPN0001207] | –
7 | 0 | 10 ± 5 | O=C(OCC(O)COC(=O)c1ccccc1O)c1ccccc1O [GPS008504] | –
8 | 0 | 0 | O=C(OC[C@@H](O)CO)c1ccccc1 [GPS008507] | –
9 | 0 | 0 | O=C(OC[C@H](O)CO)c1ccccc1 [GPS008508] | –

From patent publication US20170281653A1, “DERMOCOSMETIC OR PHARMACEUTICAL USE OF A COMPOSITION CONTAINING AT LEAST ONE INHIBITOR OF CERTAIN CHEMOKINES” (GREENPHARMA, priority 2014, published 2017)
